# Measured values: PubChem BioAssay AID276 (DTP/NCI, 2004)
# Several values for one entry are separate records, joined by “and”; a condition that tells them apart may be missing. Identical values can stand only once. Inconclusive results and toxic doses are left out.
# System: B6C3F1 mice, Lewis lung carcinoma iv, survival T/C
# Test: NCI In Vivo Anticancer Drug Screen. Data for tumor model Lewis Lung Carcinoma (intravenous) in B6C3F1 mice
# Settings: endpoint: median survival time, higher = longer survival
# Summary of the method: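 Read-out is survival, expressed as the treated-group measurement over the vehicle control-group measurement. Animals bore a transplantable tumor and were given compound.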
# [1] = dose: 3.12 mg/kg/injection, schedule: Q01DX009 (ip), vehicle: saline
# [2] = dose: 6.25 mg/kg/injection, schedule: Q01DX009 (ip), vehicle: saline
# [3] = dose: 12.5 mg/kg/injection, schedule: Q01DX009 (ip), vehicle: saline
# [4] = dose: 25.0 mg/kg/injection, schedule: Q01DX009 (ip), vehicle: saline
# [5] = dose: 25.0 mg/kg/injection, schedule: Q01DX009 (ip), vehicle: suspension in saline
# [6] = dose: 50.0 mg/kg/injection, schedule: Q01DX009 (ip), vehicle: saline
# [7] = dose: 50.0 mg/kg/injection, schedule: Q01DX009 (ip), vehicle: suspension in saline
# [8] = dose: 100.0 mg/kg/injection, schedule: Q01DX009 (ip), vehicle: suspension in saline
# [9] = dose: 12.5 mg/kg/injection, schedule: Q01DX009 (ip), vehicle: saline with Tween-80
# [10] = dose: 25.0 mg/kg/injection, schedule: Q01DX009 (ip), vehicle: saline with Tween-80
# [11] = dose: 50.0 mg/kg/injection, schedule: Q01DX009 (ip), vehicle: saline with Tween-80
# [12] = dose: 100.0 mg/kg/injection, schedule: Q01DX009 (ip), vehicle: saline with Tween-80
# [13] = dose: 200.0 mg/kg/injection, schedule: Q01DX009 (ip), vehicle: saline with Tween-80
# [14] = dose: 2.0 mg/kg/injection, schedule: Q01DX009 (ip), vehicle: saline
# [15] = dose: 200.0 mg/kg/injection, schedule: Q01DX009 (ip), vehicle: saline
# [16] = dose: 6.25 mg/kg/injection, schedule: Q01DX009 (ip), vehicle: Klucel (hydroxypropylcellulose) (HPC)
# [17] = dose: 12.5 mg/kg/injection, schedule: Q01DX009 (ip), vehicle: Klucel (hydroxypropylcellulose) (HPC)
# [18] = dose: 25.0 mg/kg/injection, schedule: Q01DX009 (ip), vehicle: Klucel (hydroxypropylcellulose) (HPC)
# [19] = dose: 50.0 mg/kg/injection, schedule: Q01DX009 (ip), vehicle: Klucel (hydroxypropylcellulose) (HPC)
# [20] = dose: 100.0 mg/kg/injection, schedule: Q01DX009 (ip), vehicle: saline
compound,measurement,setting,value
Cc1cc(=NO)cc(C)n1O,T/C,"dose: 25.0 mg/kg/injection, schedule: Q01DX009 (ip), vehicle: distilled water + alcohol",105 % of control
same,T/C,"dose: 50.0 mg/kg/injection, schedule: Q01DX009 (ip), vehicle: distilled water + alcohol",95 % of control and 102 % of control
same,T/C,"dose: 100.0 mg/kg/injection, schedule: Q01DX009 (ip), vehicle: distilled water + alcohol",96 % of control and 102 % of control
same,T/C,"dose: 200.0 mg/kg/injection, schedule: Q01DX009 (ip), vehicle: distilled water + alcohol",97 % of control and 104 % of control
same,T/C,"dose: 400.0 mg/kg/injection, schedule: Q01DX009 (ip), vehicle: distilled water + alcohol",97 % of control and 102 % of control
O=c1[nH]c2c(ccc3cnccc32)c2c1CCC2,T/C,[1],109 % of control
same,T/C,[2],102 % of control
same,T/C,[3],105 % of control
same,T/C,[4],109 % of control
CCC(C(=O)O)C(=O)O.[NH-]CC1CCCC[N-]1.[Pt+2],T/C,[3],105 % of control
same,T/C,"dose: 12.5 mg/kg/injection, schedule: Q01DX009 (ip), vehicle: suspension in saline",103 % of control
same,T/C,[4],106 % of control
same,T/C,[5],104 % of control
same,T/C,[6],113 % of control
same,T/C,[7],116 % of control
same,T/C,[8],123 % of control
CCO/C=C1\SC(=S)N(c2ccccc2C)C1=O,T/C,[9],104 % of control
same,T/C,[10],110 % of control
same,T/C,[11],98 % of control
same,T/C,[12],116 % of control
same,T/C,[13],108 % of control
same,T/C,"dose: 400.0 mg/kg/injection, schedule: Q01DX009 (ip), vehicle: saline with Tween-80",89 % of control
Cc1noc(N)c1N,T/C,"dose: 12.5 mg/kg/injection, schedule: Q01DX009 (ip), vehicle: water",101 % of control
same,T/C,"dose: 25.0 mg/kg/injection, schedule: Q01DX009 (ip), vehicle: water",95 % of control
same,T/C,"dose: 50.0 mg/kg/injection, schedule: Q01DX009 (ip), vehicle: water",102 % of control
same,T/C,"dose: 100.0 mg/kg/injection, schedule: Q01DX009 (ip), vehicle: water",92 % of control
same,T/C,"dose: 200.0 mg/kg/injection, schedule: Q01DX009 (ip), vehicle: water",98 % of control
same,T/C,"dose: 400.0 mg/kg/injection, schedule: Q01DX009 (ip), vehicle: water",106 % of control
CCCCCCCCCCCC(=O)NC1CC(O[C@H]2C[C@](O)(C(=O)CO)Cc3c(O)c4c(c(O)c32)C(=O)c2c(OC)cccc2C4=O)OC(C)C1O (stereo not given in full),T/C,"dose: 6.25 mg/kg/injection, schedule: Q01DX009 (ip), vehicle: distilled water + Tween-80",96 % of control
same,T/C,"dose: 12.5 mg/kg/injection, schedule: Q01DX009 (ip), vehicle: distilled water + Tween-80",100 % of control
same,T/C,"dose: 25.0 mg/kg/injection, schedule: Q01DX009 (ip), vehicle: distilled water + Tween-80",102 % of control
same,T/C,"dose: 50.0 mg/kg/injection, schedule: Q01DX009 (ip), vehicle: distilled water + Tween-80",119 % of control
CCOC(=O)c1[nH]c2cccc3c2c1CC(Br)C3=O (stereo not given),T/C,"dose: 12.0 mg/kg/injection, schedule: Q01DX009 (ip), vehicle: saline with Tween-80",102 % of control
same,T/C,[10],100 % of control
same,T/C,[11],99 % of control
Cc1cc(NS(=O)(=O)c2ccc(N=Nc3cc(N=Nc4ccc(S(=O)(=O)Nc5cc(C)nc(C)n5)cc4)c4c(NC(=O)C(Cl)Cl)cccc4c3OC(=O)C(Cl)Cl)cc2)nc(C)n1 (tested in a mixture with another compound),T/C,[5],105 % of control
same,T/C,[7],90 % of control
same,T/C,[8],88 % of control
same,T/C,"dose: 200.0 mg/kg/injection, schedule: Q01DX009 (ip), vehicle: suspension in saline",88 % of control
O=NN(CCCl)C(=O)NC1OC(CO)C(O)C(O)C1O (stereo not given),T/C,[14],121 % of control
Nc1ncn(C2OC(CO)C(O)C2O)c(=O)n1 (stereo not given),T/C,[2],111 % of control
same,T/C,[3],120 % of control
same,T/C,[4],115 % of control
same,T/C,[6],123 % of control
same,T/C,[15],170 % of control
same,T/C,"dose: 400.0 mg/kg/injection, schedule: Q01DX009 (ip), vehicle: saline",161 % of control
c1nc(N2CC2)c2cnn(C3CCCCO3)c2n1 (stereo not given),T/C,[11],103 % of control
same,T/C,[12],107 % of control
same,T/C,[13],112 % of control
CCc1nc(N)nc(N)c1-c1ccc(Cl)c([N+](=O)[O-])c1,T/C,"dose: 1.56 mg/kg/injection, schedule: Q01DX009 (ip), vehicle: saline with Tween-80",104 % of control
same,T/C,"dose: 3.12 mg/kg/injection, schedule: Q01DX009 (ip), vehicle: saline with Tween-80",105 % of control
same,T/C,"dose: 6.25 mg/kg/injection, schedule: Q01DX009 (ip), vehicle: saline with Tween-80",104 % of control
same,T/C,[9],105 % of control
C(C#CCN1CCOCC1)#CCN1CCOCC1,T/C,[16],108 % of control
same,T/C,[17],101 % of control
same,T/C,[18],102 % of control
same,T/C,[19],100 % of control
same,T/C,"dose: 100.0 mg/kg/injection, schedule: Q01DX009 (ip), vehicle: Klucel (hydroxypropylcellulose) (HPC)",102 % of control
same,T/C,"dose: 400.0 mg/kg/injection, schedule: Q01DX009 (ip), vehicle: Klucel (hydroxypropylcellulose) (HPC)",106 % of control
CCCCn1cnc2c(=S)nc[nH]c21,T/C,[4],112 % of control
same,T/C,[6],110 % of control
CCCCNc1ccc2nnc(C)n2n1,T/C,"dose: 50.0 mg/kg/injection, schedule: Q01DX009 (ip), vehicle: DMSO",100 % of control
same,T/C,"dose: 100.0 mg/kg/injection, schedule: Q01DX009 (ip), vehicle: DMSO",100 % of control
same,T/C,"dose: 200.0 mg/kg/injection, schedule: Q01DX009 (ip), vehicle: DMSO",102 % of control
CCCCNCCCNCCCNC(=O)c1csc(-c2csc(CCNC(=O)C(NC(=O)C(C)C(O)C(C)NC(=O)C(NC(=O)c3nc(C(CC(N)=O)NCC(N)C(N)=O)nc(N)c3C)C(OC3OC(CO)C(O)C(O)C3OC3OC(CO)C(O)C(OC(N)=O)C3O)c3cnc[nH]3)C(C)O)n2)n1 (stereo not given),T/C,[14],112 % of control
same,T/C,"dose: 8.0 mg/kg/injection, schedule: Q01DX009 (ip), vehicle: saline",155 % of control
same,T/C,"dose: 16.0 mg/kg/injection, schedule: Q01DX009 (ip), vehicle: saline",184 % of control
Cc1ccoc1,T/C,"dose: 8.3 mg/kg/injection, schedule: Q03HX027 (ip), vehicle: saline with Tween-80",107 % of control
same,T/C,"dose: 16.6 mg/kg/injection, schedule: Q03HX027 (ip), vehicle: saline with Tween-80",112 % of control
same,T/C,"dose: 33.3 mg/kg/injection, schedule: Q03HX027 (ip), vehicle: saline with Tween-80",100 % of control
same,T/C,"dose: 66.6 mg/kg/injection, schedule: Q03HX027 (ip), vehicle: saline with Tween-80",102 % of control
O=C(C/C(=N\C(=S)Nc1cc(C(F)(F)F)ccc1Cl)NO)N1CCCC1,T/C,[10],98 % of control and 101 % of control
same,T/C,[11],99 % of control and 105 % of control
same,T/C,[12],101 % of control and 111 % of control
same,T/C,[13],99 % of control
COC(=O)c1ccoc1,T/C,[3],100 % of control
same,T/C,[4],111 % of control
same,T/C,[6],97 % of control
same,T/C,[20],108 % of control
same,T/C,[15],117 % of control
COc1ccc(Cl)[n+]([O-])n1,T/C,"dose: 0.39 mg/kg/injection, schedule: Q01DX009 (ip), vehicle: Klucel (hydroxypropylcellulose) (HPC)",98 % of control
same,T/C,"dose: 0.78 mg/kg/injection, schedule: Q01DX009 (ip), vehicle: Klucel (hydroxypropylcellulose) (HPC)",91 % of control
same,T/C,"dose: 1.56 mg/kg/injection, schedule: Q01DX009 (ip), vehicle: Klucel (hydroxypropylcellulose) (HPC)",103 % of control
same,T/C,"dose: 3.12 mg/kg/injection, schedule: Q01DX009 (ip), vehicle: Klucel (hydroxypropylcellulose) (HPC)",96 % of control
same,T/C,[16],100 % of control and 88 % of control
same,T/C,[17],99 % of control and 105 % of control
same,T/C,[18],107 % of control
same,T/C,[19],112 % of control
COc1ccc(C(=O)C(CN(C)C)CN(C)C)cc1,T/C,"dose: 1.56 mg/kg/injection, schedule: Q01DX009 (ip), vehicle: saline",96 % of control
same,T/C,[1],102 % of control
same,T/C,[2],102 % of control
same,T/C,[3],105 % of control
same,T/C,[4],105 % of control
CC1(C)CC2(C)OC2C2(C1)N=NC(=Nc1ccccc1)O2 (stereo not given),T/C,[10],97 % of control
same,T/C,[11],100 % of control
same,T/C,[12],106 % of control
O=C(O)CC(NC(=O)CP(=O)(O)O)C(=O)O (stereo not given),T/C,[3],99 % of control
same,T/C,[4],103 % of control
same,T/C,[20],158 % of control
same,T/C,[15],187 % of control
